According to the NIST ThermoML archive (doi:10.1021/je1012235):

Details: 101.33 kPa, Liquid; for mass density: Vibrating tube method

CCCCCCCCCCCCCCCCCCCC(=O)OCC [ethyl eicosanoate]
Details | mass density [kg/m3] | viscosity [mPa·s]
318.15 K | 841.2 | 5.657
323.15 K | 837.7 | 4.973
328.15 K | 834.1 | 4.507
333.15 K | 830.5 | 4.058
338.15 K | 827 | 3.671
343.15 K | 823.5 | 3.337
348.15 K | 820 | 3.046
353.15 K | 816.6 | 2.78
358.15 K | 813.2 | 2.569
363.15 K | 809.7 | 2.372
368.15 K | 806.1 | 2.196
373.15 K | 802.4 | 2.039

CC/C=C\C/C=C\C/C=C\CCCCCCCC(=O)OC [methyl (Z,Z,Z)-9,12,15-octadecatrienoate]
Details | mass density [kg/m3] | viscosity [mPa·s]
278.15 K | 913.2 | 6.361
283.15 K | 909.5 | 5.618
288.15 K | 905.7 | 5.003
293.15 K | 901.9 | 4.484
298.15 K | 898.2 | 4.043
303.15 K | 894.5 | 3.667
308.15 K | 890.7 | 3.341
313.15 K | 887 | 2.925
318.15 K | 883.3 | 2.675
323.15 K | 879.6 | 2.472
328.15 K | 876 | 2.303
333.15 K | 872.3 | 2.123
338.15 K | 868.6 | 1.966
343.15 K | 864.9 | 1.817
348.15 K | 861.2 | 1.688
353.15 K | 857.6 | 1.583
358.15 K | 853.9 | 1.488
363.15 K | 850.3 | 1.402
368.15 K | – | 1.327
373.15 K | – | 1.253
